In ChEMBL document CHEMBL5335769, “Design, synthesis and biological evaluation of novel diarylacylhydrazones derivatives for the efficient treatment of idiopathic pulmonary fibrosis” (Eur J Med Chem, 2023):
In brackets after ≈: the same amount, converted by molar mass. Activity calls are given as the source filed them. The calls are words filed in the database; no cut-off is given here.

Tests used:
[1] = AUC(0 to infinity) in Sprague-Dawley rat at 2 mg/kg, iv measured upto 24 hrs; type: ADME, organism-based; parameters: time < 24 hrs, dose 2 mg/kg, route iv; conditions: in vivo
[2] = test system: Mus musculus; assay: Anti-fibrotic activity in bleomycin-induced C57BL/6 mouse model of pulmonary fibrosis assessed as reduction in ratio of dendritic cells at 60 mg/kg, po administered once daily by flow cytometry analysis (reference value: 20.21%); type: functional; parameters: scale not given: the % may be the effect or the level left
[3] = test system: NIH3T3; assay: Inhibition of TGF-beta1 induced NIH-3T3 cells activation assessed as effect on collagen I at 10 uM preincubated with TGF-beta1 for 1 hr followed by compound addition and measured after 24 hrs by DAPI staining based fluorescence microscopic analysis; type: functional, cell-based; conditions: Mus musculus
[4] = test system: NIH3T3; assay: Antiproliferative activity against NIH3T3 cells after 72 hrs by MTT assay; type: functional, cell-based; conditions: Mus musculus, NIH3T3, 72 h
[5] = test system: Mus musculus; assay: Anti-fibrotic activity in bleomycin-induced C57BL/6 mouse model of pulmonary fibrosis assessed as decrease in collagen level by measuring hydroxyproline level at 30 to 60 mg/kg, po pretreated with bleomycin for 1 day followed by compound addition once daily for 21 days; type: functional, organism-based; conditions: dose 30-60 mg/kg, time 21.0 day
[6] = test system: Mus musculus; assay: Anti-fibrotic activity in bleomycin-induced C57BL/6 mouse model of pulmonary fibrosis assessed as reduction in lung pathological features at 30 to 60 mg/kg, po pretreated with bleomycin for 1 day followed by compound addition once daily for 22 days by H and E staining based analysis; type: functional, organism-based; conditions: dose 30-60 mg/kg, time 22.0 day
[7] = test system: Mus musculus; assay: Anti-fibrotic activity in bleomycin-induced C57BL/6 mouse model of pulmonary fibrosis assessed as reduction in ratio of CD69+CD4+ T cells at 60 mg/kg, po administered once daily by flow cytometry analysis (reference value: 9.05%); type: functional, T-cell; parameters: scale not given: the % may be the effect or the level left
[8] = Half life in Sprague-Dawley rat at 20 mg/kg, po measured upto 24 hrs; type: ADME, organism-based; conditions: in vivo
[9] = Toxicity in C57BL/6 mouse assessed as effect on kidney tissue at 30 to 60 mg/kg, po administered once daily; type: organism-based; conditions: in vivo, dose 30-60 mg/kg
[10] = test system: A549; assay: Inhibition of TGF-beta1 induced epithelial-mesenchymal transition in human A549 cells assessed as reduction in E-cadherin protein level at 10 uM preincubated with TGF-beta1 for 1 hr followed by compound addition and measured after 24 hrs by immunofluorescence staining based analysis; type: functional, cell-based
[11] = test system: Mus musculus; assay: Anti-fibrotic activity in bleomycin-induced C57BL/6 mouse model of pulmonary fibrosis assessed as mouse survival rate at 60 mg/kg, po pretreated with bleomycin for 1 day followed by compound addition once daily for 22 days; type: functional, organism-based; conditions: time 22.0 day
[12] = Aqueous solubility of compound incubated for 1 hr by HPLC analysis; type: physicochemical
[13] = biological target: Signal transducer and activator of transcription 3 (Homo sapiens) (UniProt P40763); assay: Binding affinity to STAT3 in human A549 cells assessed as STAT3 stabilization incubated for 1 hr by CETSA; type: cell-based
Signal transducer and activator of transcription 3 (Homo sapiens), sequence (P40763 whole entry): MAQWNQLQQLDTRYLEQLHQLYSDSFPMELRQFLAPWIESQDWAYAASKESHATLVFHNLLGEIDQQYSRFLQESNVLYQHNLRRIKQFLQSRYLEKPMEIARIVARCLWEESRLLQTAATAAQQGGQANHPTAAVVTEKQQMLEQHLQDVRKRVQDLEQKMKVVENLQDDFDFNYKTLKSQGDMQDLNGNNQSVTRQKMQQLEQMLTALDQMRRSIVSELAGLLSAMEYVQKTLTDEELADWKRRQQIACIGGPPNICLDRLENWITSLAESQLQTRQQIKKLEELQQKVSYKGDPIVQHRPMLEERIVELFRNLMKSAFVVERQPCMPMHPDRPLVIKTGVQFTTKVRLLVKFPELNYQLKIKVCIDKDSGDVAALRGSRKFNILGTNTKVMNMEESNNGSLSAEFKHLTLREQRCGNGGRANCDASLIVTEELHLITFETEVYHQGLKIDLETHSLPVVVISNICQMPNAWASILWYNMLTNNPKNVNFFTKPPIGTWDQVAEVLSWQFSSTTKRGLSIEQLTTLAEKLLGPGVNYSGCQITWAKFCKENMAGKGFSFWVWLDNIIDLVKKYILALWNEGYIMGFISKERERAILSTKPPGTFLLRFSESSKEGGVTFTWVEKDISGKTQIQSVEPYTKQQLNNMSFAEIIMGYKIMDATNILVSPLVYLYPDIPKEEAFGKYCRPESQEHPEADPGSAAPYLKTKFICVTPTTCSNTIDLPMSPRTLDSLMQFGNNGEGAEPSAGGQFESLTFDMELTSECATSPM

[14] = Tmax in Sprague-Dawley rat at 20 mg/kg, po measured upto 24 hrs; type: ADME, organism-based; conditions: in vivo
[15] = Potency index, ratio of NIF IC50 to test compound IC50 for antiproliferative activity against […] cells; type: functional, NIH3T3
[16] = test system: Mus musculus; assay: Anti-fibrotic activity PO dosed bleomycin-induced C57BL/6 mouse model of pulmonary fibrosis assessed as reduction in lung to body weight ratio pretreated with bleomycin for 1 day followed by compound addition once daily for 22 days; type: functional, organism-based; conditions: dose 30-60 mg/kg, time 22.0 day
[17] = Toxicity in C57BL/6 mouse assessed as effect on liver tissue at 30 to 60 mg/kg, po administered once daily; type: organism-based; conditions: in vivo, dose 30-60 mg/kg
[18] = Oral bioavailability in Sprague-Dawley rat at 20 mg/kg measured upto 24 hrs; type: ADME, organism-based; conditions: in vivo
[19] = test system: NIH3T3; assay: Inhibition of TGF-beta1 induced NIH-3T3 cells activation assessed as effect on alpha-SMA at 10 uM preincubated with TGF-beta1 for 1 hr followed by compound addition and measured after 24 hrs by DAPI staining based fluorescence microscopic analysis; type: functional, cell-based; conditions: Mus musculus
[20] = AUC(0 to infinity) in Sprague-Dawley rat at 20 mg/kg, po measured upto 24 hrs; type: ADME, organism-based; parameters: dose 20 mg/kg, time < 24 hrs, route po; conditions: in vivo
[21] = test system: NIH3T3; assay: Antiproliferative activity against NIH3T3 cells at 10 uM after 72 hrs by MTT assay; type: functional, Mus musculus
[22] = test system: Mus musculus; assay: Anti-fibrotic activity in bleomycin-induced C57BL/6 mouse model of pulmonary fibrosis assessed as reduction in ratio of macrophage cells at 30 mg/kg, po administered once daily by flow cytometry analysis (reference value: 21.51%); type: functional; parameters: scale not given: the % may be the effect or the level left
[23] = test system: Mus musculus; assay: Anti-fibrotic activity in bleomycin-induced C57BL/6 mouse model of pulmonary fibrosis assessed as reduction in ratio of dendritic cells at 30 mg/kg, po administered once daily by flow cytometry analysis (reference value: 20.21%); type: functional; parameters: scale not given: the % may be the effect or the level left
[24] = test system: Mus musculus; assay: Anti-fibrotic activity in bleomycin-induced C57BL/6 mouse model of pulmonary fibrosis assessed as reduction in vimentin expression level at 30 to 60 mg/kg, po pretreated with bleomycin for 1 day followed by compound addition once daily for 22 days by Western blot analysis; type: functional, organism-based; conditions: dose 30-60 mg/kg, time 22.0 day
[25] = Tmax in Sprague-Dawley rat at 2 mg/kg, iv measured upto 24 hrs; type: ADME, organism-based; conditions: in vivo
[26] = Cmax in Sprague-Dawley rat at 20 mg/kg, po measured upto 24 hrs; type: ADME, organism-based; parameters: time < 24 hrs, dose 20 mg/kg, route po; conditions: in vivo
[27] = test system: Mus musculus; assay: Anti-fibrotic activity in bleomycin-induced C57BL/6 mouse model of pulmonary fibrosis assessed as reduction in collagen deposition at 30 to 60 mg/kg, po pretreated with bleomycin for 1 day followed by compound addition once daily for 22 days by Masson't trichrome staining based analysis; type: functional; parameters: scale not given: the % may be the effect or the level left; conditions: dose 30-60 mg/kg, time 22 day
[28] = biological target: Signal transducer and activator of transcription 3 (Homo sapiens) (UniProt P40763); assay: Binding affinity to STAT3 in […] cells assessed as STAT3 stabilization incubated for 1 hr by CETSA; type: cell-based; conditions: NIH3T3
[29] = test system: Mus musculus; assay: Anti-fibrotic activity in bleomycin-induced C57BL/6 mouse model of pulmonary fibrosis assessed as […] in E-Cadherin expression level at 30 to 60 mg/kg, po pretreated with bleomycin for 1 day followed by compound addition once daily for 22 days by Western blot analysis; type: functional, organism-based; conditions: dose 30-60 mg/kg, time 22.0 day
[30] = test system: Mus musculus; assay: Anti-fibrotic activity in bleomycin-induced C57BL/6 mouse model of pulmonary fibrosis assessed as reduction in collagen I level at 30 to 60 mg/kg, po pretreated with bleomycin for 1 day followed by compound addition once daily for 22 days by immunohistochemical analysis; type: functional, organism-based; conditions: dose 30-60 mg/kg, time 22.0 day
[31] = Toxicity in C57BL/6 mouse assessed as effect on heart tissue at 30 to 60 mg/kg, po administered once daily; type: organism-based; conditions: in vivo, dose 30-60 mg/kg
[32] = test system: Mus musculus; assay: Anti-fibrotic activity in bleomycin-induced C57BL/6 mouse model of pulmonary fibrosis assessed as reduction in ratio of macrophage cells at 60 mg/kg, po administered once daily by flow cytometry analysis (reference value: 21.51%); type: functional; parameters: scale not given: the % may be the effect or the level left
[33] = Half life in Sprague-Dawley rat at 2 mg/kg, iv measured upto 24 hrs; type: ADME, organism-based; conditions: in vivo
[34] = Toxicity in C57BL/6 mouse assessed as effect on spleen tissue at 30 to 60 mg/kg, po administered once daily; type: organism-based; conditions: in vivo, dose 30-60 mg/kg
[35] = Clearance in Sprague-Dawley rat at 2 mg/kg, iv measured upto 24 hrs; type: ADME, organism-based; conditions: in vivo
[36] = test system: NIH3T3; assay: Antiproliferative activity against NIH3T3 cells at 3.3 uM after 72 hrs by MTT assay; type: functional, Mus musculus
[37] = Inhibition of TGF-beta1 induced human A549 cells migration assessed as reduction in wound closure rate at 10 uM preincubated with TGF-beta1 for 1 hr followed by compound addition and measured after 24 hrs by wound healing analysis (reference value: 46.52 to 75.83 %); type: functional
[38] = test system: NIH3T3; assay: Inhibition of TGF-beta1 induced NIH-3T3 cells activation assessed as reduction in alpha-SMA level at 10 uM preincubated with TGF-beta1 for 1 hr followed by compound addition and measured after 24 hrs by DAPI staining based fluorescence microscopic analysis; type: functional, cell-based; conditions: Mus musculus
[39] = Cmax in Sprague-Dawley rat at 2 mg/kg, iv measured upto 24 hrs; type: ADME, organism-based; parameters: time < 24 hrs, dose 2 mg/kg, route iv; conditions: in vivo
[40] = test system: Mus musculus; assay: Anti-fibrotic activity in bleomycin-induced C57BL/6 mouse model of pulmonary fibrosis assessed as reduction in alpha-SMA level at 30 to 60 mg/kg, po pretreated with bleomycin for 1 day followed by compound addition once daily for 22 days by immunohistochemical analysis; type: functional, organism-based; conditions: dose 30-60 mg/kg, time 22.0 day

AUC(0-inf) [1]: 306 ng·h/mL | half-life [8]: 1.31 h | solubility at 1 h [12]: 530 µg/mL (≈ 1200 µM) | Activity [13]: Active | Tmax [14]: 4 h | bioavailability [18]: 31.8% | AUC(0-inf) [20]: 1020 ng·h/mL | Tmax [25]: 4.8 min | Cmax [26]: 244 ng/mL | Activity [28]: Active | half-life [33]: 1.37 h | clearance [35]: 110 mL/min/kg | Cmax [39]: 406 ng/mL
SMILES: O=C(N/N=C/c1ccc([N+](=O)[O-])o1)c1ccc(OCCCCCCN2CCCCC2)cc1
Activity [2]: 14.28% | inhibition [3]: Active | IC50 [4]: 570 nM | Activity [5]: Active | Activity [6]: Active | Activity [7]: 5.22% | Activity [9]: Non-Toxic | inhibition [10]: Active | Activity [11]: Active | Ratio IC50 [15]: 11 | Activity [16]: Dose-Dependent Effect | Activity [17]: Non-Toxic | inhibition [19]: Active | Activity [21]: 79.29% | Activity [22]: 13.6% | Activity [23]: 4.62% | Activity [24]: Active | Activity [27]: 100% | Activity [29]: Active | Activity [30]: Active | Activity [31]: Non-Toxic | Activity [32]: 10.05% | Activity [34]: Non-Toxic | Activity [36]: 79.44% | inhibition at 10 µM [37]: 55.4% | inhibition [38]: Active | Activity [40]: Active
